Results from PubChem BioAssay AID488879 (Sanford-Burnham Center for Chemical Genomics, 2010).
Active and inactive are the calls of the source. The rule behind the calls is not given here.

Target: alkaline phosphatase, placental type (Homo sapiens)
Assay: PLAP enzyme inhibitors, dose response, selectivity assay for mouse IAP inhibitor project, biochemical, uHTS hits (AID 488879)
Conditions: purified human placental alkaline phosphatase, enzymatic inhibition

Row | Compound | IC50
1 | Oc1ccc(-c2csc(Nc3cccc4ccccc34)n2)cc1O | > 100 µM (inactive)
2 | CCOC(=O)c1ccc(N2CCN(c3ccccc3F)CC2)c(NC(=O)Nc2cccc(OC)c2)c1 | > 100 µM (inactive)
3 | CCOc1ccccc1CNC(=O)CCNS(=O)(=O)c1ccc2[nH]c(=O)oc2c1 | > 100 µM (inactive)
4 | O=C(NN1C(=O)/C(=C/C=C/c2ccco2)SC1=S)c1ccccc1O | 27.2 µM
5 | O=C1CNC(=S)N1CCc1ccc(O)c(O)c1 | > 100 µM (inactive)
6 | CCOC(=O)c1ccc(N2CCN(c3ccccc3F)CC2)c(NC(=O)Nc2ccccc2)c1 | > 100 µM (inactive)
7 | Nc1nnc(CC(=O)N/N=C/c2cc([N+](=O)[O-])cc(Br)c2O)s1 | > 100 µM (inactive)
8 | O=C(O)CNS(=O)(=O)c1ccc2c3c(cccc13)C(=O)N2 | > 100 µM (inactive)
9 | Oc1cc(O)c2c(c1)OC(c1ccc(O)c(O)c1)C(O)C2 (stereo unspecified) | > 100 µM (inactive)
10 | O=C(O)CC(C(=O)O)N1C(=O)/C(=C/C=C/c2ccco2)SC1=S (stereo unspecified) | > 100 µM (inactive)
11 | COc1cc(/C=C/[N+](=O)[O-])ccc1OC(=O)c1cc2ccccc2oc1=O | > 100 µM (inactive)
12 | N#Cc1c(SCC(=O)Nc2nccs2)sc2c(O)cc(=O)[nH]c12 | > 100 µM (inactive)
13 | O=C(NN1C(=O)CSC1=S)C(=O)NN1C(=O)CSC1=S | > 100 µM (inactive)
14 | C#CCOCCOCCOCCNc1nc(N2CCN(C(=O)CCCCCCCCCCNC(=O)Cn3cc(CCCCCN)nn3)CC2)nc(N2CCN(C(=O)CCCCCCCCCCNC(=O)[C@@H](CCSC)n3cc(CCO)nn3)CC2)n1 | > 100 µM (inactive)
15 | COc1ccc(C2CC(c3ccccc3Cl)=NN2c2ccc(S(N)(=O)=O)cc2)cc1 (stereo unspecified) | > 100 µM (inactive)
16 | O=C1/C(=C/c2ccc(O)c(O)c2)Oc2cc(O)ccc21 | 67.2 µM
17 | CCN(C(=O)C(C)N1C(=O)/C(=C/c2ccco2)SC1=S)C1CCS(=O)(=O)C1 (stereo unspecified) | 7.78 µM
18 | O=C(COC(=O)COc1ccccc1)Nc1ncc([N+](=O)[O-])s1 | > 100 µM (inactive)
19 | O=c1[nH]c2ccc(S(=O)(=O)N3CCCCC3)cc2o1 | > 100 µM (inactive)
20 | N#CC(C#N)=Cc1ccc(O)c(O)c1 | > 100 µM (inactive)
21 | O=c1ccc2c(-c3ccccc3S(=O)(=O)O)c3ccc(O)c(O)c3oc-2c1O | > 100 µM (inactive)
22 | C#CCOCCOCCOCCNc1nc(N2CCN(C(=O)CCCCCCCCCCNC(=O)Cn3cc(C[C@@H](C)O)nn3)CC2)nc(N2CCN(C(=O)CCCCCCCCCCNC(=O)[C@@H](CCSC)n3cc(CCO)nn3)CC2)n1 | 39.9 µM

Row | Compound | IC50
23 | O=C1c2cccc(O)c2C(=O)c2c(O)cc(CO)cc21 | > 100 µM (inactive)
24 | O=C(NNC(=O)c1cc2cc(Br)ccc2oc1=O)c1ccc(O)cc1O | > 100 µM (inactive)
25 | CC(C)(C)c1ccc(O)c(N=Cc2cc3c(cc2[N+](=O)[O-])OCO3)c1 | > 100 µM (inactive)
26 | NC1=NC(=O)/C(=C\c2ccco2)S1 | 32 µM
27 | CN=c1scc(-c2ccco2)n1/N=C/c1ccc(O)c(O)c1 | > 100 µM (inactive)
28 | COc1cc(/C=C/C(O)=C/C(=O)/C=C/c2ccc(O)cc2)ccc1O | > 100 µM (inactive)
29 | COc1cccc(NC(=O)CN(C)S(=O)(=O)c2ccc3[nH]c(=O)oc3c2)c1 | > 100 µM (inactive)
30 | O=[N+]([O-])c1ccccc1NC(=S)N/N=C/c1ccc(O)c(O)c1 | > 100 µM (inactive)
31 | CN(CC(=O)NC(c1ccccc1)c1ccccc1)Cc1nc2ccccc2c(=O)[nH]1 | > 100 µM (inactive)
32 | CC(C(=O)O)N1C(=O)/C(=C/C=C/c2ccco2)SC1=S (stereo unspecified) | > 100 µM (inactive)
33 | Cc1ccc(CN2C3CCCC2CC(NC(=O)Nc2cccc(F)c2)C3)cc1 (stereo unspecified) | > 100 µM (inactive)
34 | Cc1cc(C)cc(NC(=S)NC2CC3CCCC(C2)N3Cc2cccs2)c1 (stereo unspecified) | 42 µM
35 | Cc1cc(F)ccc1S(=O)(=O)Nc1ccc(O)c(Sc2ncn[nH]2)c1 | 6.94 µM
36 | Cc1nn(C(C)C)c(C)c1CN1CCC(C(=O)Nc2cccc(-c3cccc(F)c3)c2)CC1 | 56.6 µM
37 | Cc1ccc(S(=O)(=O)Nc2ccc(O)c(Sc3ncn[nH]3)c2)cc1 | > 100 µM (inactive)
38 | Cc1nonc1C(=O)N/N=C/c1ccc(O)c(O)c1 | 18 µM
39 | Cc1cc(Cl)ccc1NC(=S)NCCC(c1ccccc1)c1ccccc1 | > 100 µM (inactive)
40 | Cc1ccc(C)c(NS(=O)(=O)c2ccc3[nH]c(=O)oc3c2)c1 | > 100 µM (inactive)
41 | CCOc1ccc(S(=O)(=O)Nc2ccc(O)c(Sc3ncn[nH]3)c2)cc1 | 20.5 µM
42 | COc1ccc(C(=O)OCC(=O)Nc2ncc([N+](=O)[O-])s2)cc1OC | > 100 µM (inactive)
43 | NS(=O)(=O)c1ccc(-c2ccc(/C=C3\NC(=S)NC3=O)o2)cc1 | > 100 µM (inactive)
44 | CC(C)=CCc1c(O)c(CC=C(C)C)c2c(c1O)-c1cc(O)c(O)cc1CC2 | > 100 µM (inactive)

Row | Compound | IC50
45 | CCN1C(=O)/C(=C2\SC(=S)N(NC(=O)c3ccccc3O)C2=O)c2ccccc21 | > 100 µM (inactive)
46 | C#CCOCCOCCOCCNc1nc(N2CCN(C(=O)CCCCCCCCCCNC(=O)[C@H](CO)n3cc(CCCSC)nn3)CC2)nc(N2CCN(C(=O)CCCCCCCCCCNC(=O)[C@H](CCCN=C(N)N)n3cc(C[C@@H](C)CC)nn3)CC2)n1 | > 100 µM (inactive)
47 | O=C1NN(c2cccc(Br)c2)C(=O)/C1=C/c1ccc(-c2cc([N+](=O)[O-])ccc2O)o1 | > 100 µM (inactive)
48 | COc1cc(OC)c2c(c1O)OC(c1ccccc1)CC2=O (stereo unspecified) | > 100 µM (inactive)
49 | COc1ccc(Cl)cc1NC(=S)NCCC(c1ccccc1)c1ccccc1 | 39.4 µM
50 | COCc1ccc(CN2CCC(C(=O)Nc3cccc(-c4cccc(Cl)c4)c3)CC2)o1 | > 100 µM (inactive)
51 | O=C(/C=C/c1ccco1)NC(=S)Nc1ccc(C(=O)O)cc1 | > 100 µM (inactive)
52 | CCOc1ccccc1N1CCN(S(=O)(=O)c2ccc3c4c(cccc24)C(=O)N3)CC1 | > 100 µM (inactive)
53 | O=C1N=c2ccccc2=C1c1sc(=S)n(NC(=O)c2ccccc2)c1O | 5.31 µM
54 | CCOC(=O)C1=C(C)N=c2s/c(=C/c3cccc([N+](=O)[O-])c3O)c(=O)n2C1c1ccc(OC)cc1OC (stereo unspecified) | > 100 µM (inactive)
55 | Cc1c(Cl)cccc1NC(=S)NCCC(c1ccccc1)c1ccccc1 | > 100 µM (inactive)
56 | O=C(CN1C(=O)/C(=C/c2ccco2)SC1=S)Nc1ccc(O)c(C(=O)O)c1 | 17.2 µM
57 | O=C(NN1C(=O)/C(=C/c2ccc(O)cc2)SC1=S)c1ccccc1O | > 100 µM (inactive)
58 | CCn1c(SCC(=O)c2ccc(O)c(O)c2)nnc1-c1ccccc1OC | > 100 µM (inactive)
59 | O=C(CSc1nc2nn(-c3ccccc3)c(=O)c-2c2n1CCCCC2)c1ccc(O)c(O)c1 | > 100 µM (inactive)
60 | O=C(COc1ccccc1C(=O)N/N=C\c1ccc(O)c(O)c1)N/N=C/c1ccc(O)c(O)c1 | > 100 µM (inactive)
61 | NS(=O)(=O)c1cc(C(=O)N=Nc2c(O)[nH]c3ccccc23)ccc1Cl | > 100 µM (inactive)
62 | Cc1ccc(NC(=S)NCc2ccccc2)cc1S(=O)(=O)N1CCCCC1 | > 100 µM (inactive)
63 | O=C(N/N=C/c1cccnc1)c1cc(O)c(O)c(O)c1 | > 100 µM (inactive)
64 | O=C(CSc1ncn[nH]1)CSc1ncn[nH]1 | 23 µM
65 | O=C1CSC(=S)N1/N=C/c1ccc(O)c(O)c1O | > 100 µM (inactive)
66 | CCc1cc(Cn2nc(-c3ccccc3)cc2C(=O)NCc2cccc(Br)c2)on1 | > 100 µM (inactive)
